Marks after values point to notes of the source that are not given here.
Assays:
[1] = target: T1, Porcine ventricle myofibrils (ventricular myosin ATPase) (Sus scrofa, UniProt P79293); experiment: Myofibril ATPase assay, porcine ventricle myofibrils; type: biochemical, porcine (Yucatan minipigs)
T1 construct: Myofibrils from porcine cardiac muscle was isolated from the left ventricle of Yucatan minipigs; tissue Exemplar Genetics; host or cells: left ventricle of Yucatan minipigs, myofibrils prepared in house
T1 sequence (P79293 whole entry): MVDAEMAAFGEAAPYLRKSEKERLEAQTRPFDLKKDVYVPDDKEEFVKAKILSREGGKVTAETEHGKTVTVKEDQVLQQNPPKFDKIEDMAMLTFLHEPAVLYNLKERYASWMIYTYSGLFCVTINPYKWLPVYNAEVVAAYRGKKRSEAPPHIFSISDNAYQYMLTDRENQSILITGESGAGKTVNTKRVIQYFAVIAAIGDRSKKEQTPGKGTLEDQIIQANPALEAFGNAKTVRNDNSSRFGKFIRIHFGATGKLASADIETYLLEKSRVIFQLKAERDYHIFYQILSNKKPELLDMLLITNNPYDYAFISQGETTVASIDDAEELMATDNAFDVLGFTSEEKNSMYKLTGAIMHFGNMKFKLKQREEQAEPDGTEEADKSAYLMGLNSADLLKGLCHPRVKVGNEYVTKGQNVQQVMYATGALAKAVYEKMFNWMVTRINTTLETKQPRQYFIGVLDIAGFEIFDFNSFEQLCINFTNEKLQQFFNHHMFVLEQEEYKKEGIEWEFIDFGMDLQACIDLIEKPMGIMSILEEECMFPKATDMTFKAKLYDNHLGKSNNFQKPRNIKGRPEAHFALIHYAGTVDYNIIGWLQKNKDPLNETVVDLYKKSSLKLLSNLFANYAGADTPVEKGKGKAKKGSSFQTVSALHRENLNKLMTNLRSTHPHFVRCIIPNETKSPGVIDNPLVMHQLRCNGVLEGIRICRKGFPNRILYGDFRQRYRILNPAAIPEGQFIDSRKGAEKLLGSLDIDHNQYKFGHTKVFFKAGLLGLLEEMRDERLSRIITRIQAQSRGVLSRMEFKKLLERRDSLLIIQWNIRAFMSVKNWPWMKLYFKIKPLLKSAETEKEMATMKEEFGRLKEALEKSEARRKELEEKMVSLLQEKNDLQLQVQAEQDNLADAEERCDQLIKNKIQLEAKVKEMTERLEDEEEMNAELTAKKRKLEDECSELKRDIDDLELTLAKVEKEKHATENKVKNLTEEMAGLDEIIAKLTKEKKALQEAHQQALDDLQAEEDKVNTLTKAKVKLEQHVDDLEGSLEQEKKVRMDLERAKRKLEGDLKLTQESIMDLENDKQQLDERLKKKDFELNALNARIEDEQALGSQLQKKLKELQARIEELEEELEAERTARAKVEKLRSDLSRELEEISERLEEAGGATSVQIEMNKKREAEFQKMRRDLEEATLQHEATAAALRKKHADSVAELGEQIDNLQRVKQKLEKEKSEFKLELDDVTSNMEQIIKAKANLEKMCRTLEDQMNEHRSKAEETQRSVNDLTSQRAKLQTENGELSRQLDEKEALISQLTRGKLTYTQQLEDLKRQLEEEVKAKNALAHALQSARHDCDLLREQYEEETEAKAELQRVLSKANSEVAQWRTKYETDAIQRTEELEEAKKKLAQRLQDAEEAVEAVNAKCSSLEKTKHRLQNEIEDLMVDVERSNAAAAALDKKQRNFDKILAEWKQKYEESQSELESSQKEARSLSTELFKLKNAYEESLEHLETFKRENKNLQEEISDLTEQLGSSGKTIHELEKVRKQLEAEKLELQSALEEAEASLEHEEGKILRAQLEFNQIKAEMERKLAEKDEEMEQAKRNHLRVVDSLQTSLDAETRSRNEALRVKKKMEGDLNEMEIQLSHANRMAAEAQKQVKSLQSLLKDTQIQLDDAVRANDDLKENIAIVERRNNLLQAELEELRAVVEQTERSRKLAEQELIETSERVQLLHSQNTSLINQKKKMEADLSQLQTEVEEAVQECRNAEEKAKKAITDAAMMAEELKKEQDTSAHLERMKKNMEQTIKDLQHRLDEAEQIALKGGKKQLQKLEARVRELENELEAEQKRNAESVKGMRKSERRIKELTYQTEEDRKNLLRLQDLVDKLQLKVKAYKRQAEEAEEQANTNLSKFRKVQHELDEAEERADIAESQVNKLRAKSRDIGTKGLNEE
Outline: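 In a coupled enzyme format, ADP from myofibril ATPase drives NADH oxidation, monitored kinetically at 340 nm for 75 min using minipig ventricle myofibrils. Effective concentrations giving 25% loss or gain of activity relative to vehicle were calculated from 4-parameter fits.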

[2] = tested on: Porcine atria myofibrils (atrial myosin ATPase); experiment: Myofibril ATPase assay, porcine atria myofibrils; type: biochemical
Outline: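 Y75 (25% inhibition) or Y125 (activation) values come from 4-parameter logistic fits of vehicle-normalized rates. Rates are linear-regression slopes of NADH absorbance at 340 nm, read kinetically over 75 min, with ADP coupled to NADH oxidation via pyruvate kinase/lactate dehydrogenase.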

[3] = tested on: Rabbit Psoas myofibrils (skeletal myosin ATPase); experiment: Myofibril ATPase assay, rabbit psoas (skeletal) myofibrils; type: biochemical
Outline: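 Values are concentrations giving 75% (Y75) or 125% (Y125) of vehicle ATPase activity, from 4-parameter logistic fits of normalized rates. Rates came from linear regression of A340 over 75 min, NADH oxidation coupled to ADP via PK-LDH. Enzyme source: skeletal myofibrils from rabbit psoas, pH 7.0 pCa buffer.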

[4] = Y75 value (no ‡ mark), porcine ventricle myofibrils
[5] = Y75 value (no ‡ mark), porcine atria myofibrils
[6] = Y75 value (no ‡ mark), rabbit psoas myofibrils
[7] = porcine ventricle myofibrils, Y75 value
[8] = porcine atria myofibrils, Y75 value (75% activity relative to no compound)
[9] = rabbit psoas myofibrils, Y75 value
[10] = Y75 value: concentration required to reduce myosin ATP-ase activity by 25%, Porcine Ventricle Prep pCa 25 GEOM_MEAN
[11] = Y75 value: concentration required to reduce myosin ATP-ase activity by 25%, Porcine Atria Prep pCa 25 GEOM_MEAN

| SMILES | Ventricular EC25 [1, 4] [µM] | Atrial EC25 [2, 5] [µM] | Skeletal EC25 [3, 6] [µM] | Ventricular EC25 [1, 7] [µM] | Atrial EC25 [2, 8] [µM] | Skeletal EC25 [3, 9] [µM] | further results |
| --- | --- | --- | --- | --- | --- | --- | --- |
| C[C@H](NC(=O)Cc1cc2c(C(F)(F)F)c(F)ccc2[nH]c1=O)c1ncc(C#N)cn1 (single isomer, unassigned) [compound 2010] | 3.45 | 1.25 | 0.66 | – | – | – | – |
| COc1ccc([C@@H](C)NC(=O)Cc2c(C)c3c(C)nccc3[nH]c2=O)cn1 (single isomer, unassigned) [compound 290] | – | – | – | 100.00 | 100.00 | 100.00 | – |
| Cc1nc(C#N)cnc1[C@@H](C)NC(=O)Cc1c(C)c2nc(C(F)(F)F)ccc2[nH]c1=O (single isomer, unassigned) [compound 138] | – | – | – | 1.17 | 0.35 | 2.85 | – |
| Cc1c(CC(=O)N[C@H](CO)c2ccc(C#N)cc2F)c(=O)[nH]c2ccc(C(F)(F)F)nc12 [compound 218] | – | – | – | 100.00 | 100.00 | 14.86 | – |
| Cc1c(C(F)(F)C(=O)NC(C)c2cccc(C#N)n2)c(=O)[nH]c2ccc(F)c(F)c12 (single isomer, unassigned) [Compound 2587] | 100.00 | 5.60 | 5.65 | – | – | – | – |
| Cc1ccccc1[C@H](C)NC(=O)Cc1c(C)c2c(C)nccc2[nH]c1=O (single isomer, unassigned) [compound 327] | – | – | – | 9.24 | 3.29 | 0.67 | – |
| Cc1c(C2(C(=O)N[C@@H](C)c3nccc(C#N)n3)CC2)c(=O)[nH]c2ccc(F)c(F)c12 (single isomer, unassigned) [compound 2510] | – | 7.78 | – | – | – | – | Ventricular EC25 ([1]; ‡ Y125 value, not a Y75 value (125% activity relative to no compound), porcine ventricle myofibrils): 77.57‡ μM; Skeletal EC25 ([3]; ‡ Y125 value, not a Y75 value (125% activity relative to no compound), rabbit psoas myofibrils): 85.63‡ μM |
| Cc1c(F)ccc2[nH]c(=O)c(C(F)(F)C(=O)N[C@@H](C)c3ncc(C#N)cc3F)c(C)c12 (single isomer, unassigned) [compound 4812] | 0.18 | 0.19 | 0.05 | – | – | – | – |
| C[C@H](NC(=O)Cc1cc2c(F)c(F)ccc2[nH]c1=O)c1nc(C#N)co1 (single isomer, unassigned) [compound 4007] | – | – | – | – | – | – | Ventricular EC25 [1, 10]: 100.00 µM; Atrial EC25 [2, 11]: 100.00 µM; Skeletal EC25 (μM), Y125 value (‡) ([3]; Y125 value: concentration required to increase myosin ATP-ase activity by 25%, Rabbit Psoas Prep pCa 25 GEOM_MEAN): 100.00‡ μM |
| Cc1ccc([C@H](CO)NC(=O)Cc2c(C)c3c(C)nccc3[nH]c2=O)cc1 (single isomer, unassigned) [compound 336] | – | – | – | 100.00 | 69.32 | 100.00 | – |
| Cc1c(CC(=O)N[C@@H](C)c2ncc(C#N)cn2)c(=O)[nH]c2ccc(F)cc12 [compound 1071] | 11.94 | 5.29 | 100.00 | – | – | – | – |
| C[C@H](NC(=O)Cc1cc2c(F)c(F)ccc2[nH]c1=O)c1cc(C#N)c(F)s1 (single isomer, unassigned) [compound 4003] | – | – | – | – | – | – | Ventricular EC25 [1, 10]: 100.00 µM; Atrial EC25 [2, 11]: 100.00 µM; Skeletal EC25 ([3]; Y75 value: concentration required to reduce myosin ATP-ase activity by 25%, Rabbit Psoas Prep pCa 25 GEOM_MEAN): 1.06 µM |
| C[C@H](NC(=O)[C@H](C)c1cc2c(Cl)c(O)ccc2[nH]c1=O)c1ccc(F)cc1F (single isomer, unassigned) [compound 86] | 100.00 | 100.00 | 100.00 | – | – | – | – |
| CCOc1nccc2[nH]c(=O)c([C@@H](C)C(=O)N[C@@H](C)c3ccc(F)cc3F)c(C(F)(F)F)c12 (single isomer, unassigned) [compound 416] | – | – | – | 100.00 | 100.00 | 0.46 | – |
| CCOc1ccc2[nH]c(=O)c(CC(=O)N[C@@H](C)c3ccc(F)cc3F)c(C)c2n1 [compound 414] | – | – | – | 13.93 | 0.16 | 0.03 | – |
| Cc1c(CC(=O)N[C@@H](C)c2ccc(C#N)cc2F)c(=O)[nH]c2ccc(F)c(C(F)(F)F)c12 [compound 38] | 0.06 | 0.03 | 0.02 | – | – | – | – |
| COc1nccc2[nH]c(=O)c([C@H](C)C(=O)N[C@@H](C)c3ccc(F)cc3F)c(C(F)(F)F)c12 (single isomer, unassigned) [compound 424] | – | – | – | 17.24 | 1.91 | 4.49 | – |
| Cc1c(CC(=O)N[C@H]2COc3cc(F)cc(F)c32)c(=O)[nH]c2ccnc(C#N)c12 (single isomer, unassigned) [compound 274] | – | – | – | 0.13 | 0.04 | 0.02 | – |

| SMILES | Ventricular EC25 [1, 4] [µM] | Atrial EC25 [2, 5] [µM] | Skeletal EC25 [3, 6] [µM] | Ventricular EC25 [1, 7] [µM] | Atrial EC25 [2, 8] [µM] | Skeletal EC25 [3, 9] [µM] | further results |
| --- | --- | --- | --- | --- | --- | --- | --- |
| Cc1nccc2[nH]c(=O)c(CC(=O)N[C@@H]3CCc4cc(C#N)cnc43)c(C)c12 (single isomer, unassigned) [compound 233] | – | – | – | 100.00 | 100.00 | 5.72 | – |
| Cc1c(CC(=O)N[C@H](CO)c2ccc(F)cc2F)c(=O)[nH]c2ccnc(C(F)(F)F)c12 [compound 231] | – | – | – | 100.00 | 100.00 | 100.00 | – |
| Cc1nccc2[nH]c(=O)c(CC(=O)N[C@H]3COc4cc(C#N)cc(F)c43)c(C)c12 (single isomer, unassigned) [compound 178] | – | – | – | 20.24 | 4.55 | 1.84 | – |
| Cc1c(CC(=O)N[C@@H]2COc3cc(C#N)cnc32)c(=O)[nH]c2ccc(F)cc12 [compound 1062] | 6.56 | 3.49 | 9.26 | – | – | – | – |
| C[C@H](NC(=O)Cc1cc2cc(F)c(F)cc2[nH]c1=O)c1cnc(C#N)cn1 [compound 1099] | 49.75 | 7.61 | 4.41 | – | – | – | – |
| Cc1c(CC(=O)N[C@H](C)c2ccc(C#N)cn2)c(=O)[nH]c2cccc(C#N)c12 [compound 1076] | 1.49 | 1.89 | 0.35 | – | – | – | – |
| Cc1nccc2[nH]c(=O)c(CC(=O)N[C@H]3CCc4cc(C#N)cnc43)c(C)c12 (single isomer, unassigned) [compound 234] | – | – | – | 100.00 | 100.00 | 20.28 | – |
| Cc1c(CC(=O)N[C@@H](C)c2ncc(C#N)cn2)c(=O)[nH]c2cccc(F)c12 (single isomer, unassigned) [compound 2042] | 2.11 | 0.55 | 2.39 | – | – | – | – |
| Cc1c(CC(=O)N[C@@H](C)c2ccc(F)cc2F)c(=O)[nH]c2ccnc(Nc3ccccc3)c12 [compound 278] | – | – | – | 100.00 | 17.26 | 2.73 | – |
| C[C@@H](NC(=O)Cc1c(C(F)(F)F)c2c(C3CC3)nccc2[nH]c1=O)c1ccc(C#N)cn1 (single isomer, unassigned) [compound 3005] | – | – | – | 100.00 | 100.00 | 100.00 | – |
| C[C@H](NC(=O)Cc1c(Cl)c2cnccc2[nH]c1=O)c1ccc(C#N)cn1 [compound 454] | – | – | – | 52.30 | 7.21 | 4.25 | – |
| Cc1nc(C#N)ncc1[C@@H](C)NC(=O)Cc1c(C)c2c(F)c(F)ccc2[nH]c1=O [compound 1131] | 0.89 | 0.35 | 0.53 | – | – | – | – |
| Cc1nccc2[nH]c(=O)c(CC(=O)N[C@H](CO)c3ncc(C#N)cc3F)c(C)c12 (single isomer, unassigned) [compound 247] | – | – | – | 100.00 | 34.93 | 4.60 | – |
| Cc1nccc2[nH]c(=O)c(CC(=O)N[C@@H]3c4c(F)cc(F)cc4OC3(C)C)c(C)c12 (single isomer, unassigned) [compound 190] | – | – | – | 45.62 | 8.11 | 100.00 | – |
| Cc1cc(C#N)nnc1[C@@H](C)NC(=O)Cc1c(C)c2c(C)nccc2[nH]c1=O [compound 489] | – | – | – | 0.57 | 1.00 | 0.26 | – |
| Cc1c(CC(=O)N[C@@H](C)c2ccc(C#N)cn2)c(=O)[nH]c2ccncc12 [compound 467] | – | – | – | 100.00 | 100.00 | 16.00 | – |
| C[C@@H](NC(=O)C(F)(F)c1cc2c(F)c(F)ccc2[nH]c1=O)c1nccc(C#N)n1 (single isomer, unassigned) [compound 2561] | 0.79 | 0.23 | 0.25 | – | – | – | – |

— patent publication US12448369B2 (Edgewise Therapeutics, Inc., priority 2023, dated 2025)
